According to patent US8148391B2 (Cephalon, Inc., priority 2006, dated 2012):
Like-named read-outs stand apart in the source and are kept apart here. One block for each compound: values may come before it.

Legend:
[1] = biological target: T1, baculovirus-expressed ALK (Homo sapiens, UniProt Q9UM73); assay: ALK Kinase Assay (ELISA-type, time-resolved fluorescence); format: biochemical
T1 construct: host or cells: baculovirus expression system
Procedure, shortened: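 Substrate coating: phospholipase C-γ, 10 μg/mL in TBS. Kinase step: 30 ng/ml ALK, 15 min, 37° C. Detection and analysis: Eu-N1 PT66 antibody, with IC50 fitted as a sigmoidal variable-slope dose-response curve.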

[2] = biological target: T2, c-Met (cytoplasmic domain) (Homo sapiens, UniProt P08581); assay: c-Met Kinase Assay (same methods as for ALK, with modifications); format: biochemical
T2 construct: 10 ng/mL c-Met (cytoplasmic domain, Invitrogen Corporation #PV3143); purchased Invitrogen Corporation PV3143
T2 sequence (P08581 956-1390 limits assumed): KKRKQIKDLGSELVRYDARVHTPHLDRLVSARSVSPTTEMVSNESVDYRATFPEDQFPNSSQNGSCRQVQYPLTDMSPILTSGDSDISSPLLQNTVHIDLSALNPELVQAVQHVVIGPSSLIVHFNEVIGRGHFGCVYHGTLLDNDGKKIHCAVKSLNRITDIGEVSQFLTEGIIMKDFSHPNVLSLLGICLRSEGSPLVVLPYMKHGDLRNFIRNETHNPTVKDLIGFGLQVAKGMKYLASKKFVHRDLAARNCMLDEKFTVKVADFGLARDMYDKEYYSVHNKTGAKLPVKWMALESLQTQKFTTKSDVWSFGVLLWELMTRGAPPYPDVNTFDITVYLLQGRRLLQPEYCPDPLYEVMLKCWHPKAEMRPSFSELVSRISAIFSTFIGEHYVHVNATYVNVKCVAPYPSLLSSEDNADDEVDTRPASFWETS
Procedure, shortened: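 Wells were coated with 10 μg/mL phospholipase C-γ substrate in TBS, and reactions were started with 10 ng/mL c-Met cytoplasmic domain and run at 37° C for 15 minutes. Phosphorylated product was detected with Eu-N1-labeled PT66 antibody. IC50 values came from sigmoidal variable-slope fits of percent inhibition versus log compound concentration.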

[3] = ALK kinase inhibition, 1 μM ATP (Km level), read-out: ALK Activity
[4] = c-Met kinase inhibition, 1 μM ATP (Km level), read-out: cMet Activity
[5] = 1 μM ATP (Km level), read-out: ALK Activity (ALK Kinase Inhibition, IC50)
[6] = 1 μM ATP (Km level), read-out: cMet Activity (c-Met Kinase Inhibition, IC50)
[7] = 1 μM ATP (Km level), 30 ng/ml ALK, 37° C., 15 minutes, read-out: ALK Activity (ALK kinase inhibition, IC50 class)
[8] = 1 μM ATP (Km level), 10 ng/mL c-Met, read-out: cMet Activity (c-Met kinase inhibition, IC50 class)
[9] = ALK kinase inhibition, 1 μM ATP, read-out: ALK Activity
[10] = c-Met kinase inhibition, 1 μM ATP, read-out: cMet Activity

T1 sequence (Q9UM73 19-1620): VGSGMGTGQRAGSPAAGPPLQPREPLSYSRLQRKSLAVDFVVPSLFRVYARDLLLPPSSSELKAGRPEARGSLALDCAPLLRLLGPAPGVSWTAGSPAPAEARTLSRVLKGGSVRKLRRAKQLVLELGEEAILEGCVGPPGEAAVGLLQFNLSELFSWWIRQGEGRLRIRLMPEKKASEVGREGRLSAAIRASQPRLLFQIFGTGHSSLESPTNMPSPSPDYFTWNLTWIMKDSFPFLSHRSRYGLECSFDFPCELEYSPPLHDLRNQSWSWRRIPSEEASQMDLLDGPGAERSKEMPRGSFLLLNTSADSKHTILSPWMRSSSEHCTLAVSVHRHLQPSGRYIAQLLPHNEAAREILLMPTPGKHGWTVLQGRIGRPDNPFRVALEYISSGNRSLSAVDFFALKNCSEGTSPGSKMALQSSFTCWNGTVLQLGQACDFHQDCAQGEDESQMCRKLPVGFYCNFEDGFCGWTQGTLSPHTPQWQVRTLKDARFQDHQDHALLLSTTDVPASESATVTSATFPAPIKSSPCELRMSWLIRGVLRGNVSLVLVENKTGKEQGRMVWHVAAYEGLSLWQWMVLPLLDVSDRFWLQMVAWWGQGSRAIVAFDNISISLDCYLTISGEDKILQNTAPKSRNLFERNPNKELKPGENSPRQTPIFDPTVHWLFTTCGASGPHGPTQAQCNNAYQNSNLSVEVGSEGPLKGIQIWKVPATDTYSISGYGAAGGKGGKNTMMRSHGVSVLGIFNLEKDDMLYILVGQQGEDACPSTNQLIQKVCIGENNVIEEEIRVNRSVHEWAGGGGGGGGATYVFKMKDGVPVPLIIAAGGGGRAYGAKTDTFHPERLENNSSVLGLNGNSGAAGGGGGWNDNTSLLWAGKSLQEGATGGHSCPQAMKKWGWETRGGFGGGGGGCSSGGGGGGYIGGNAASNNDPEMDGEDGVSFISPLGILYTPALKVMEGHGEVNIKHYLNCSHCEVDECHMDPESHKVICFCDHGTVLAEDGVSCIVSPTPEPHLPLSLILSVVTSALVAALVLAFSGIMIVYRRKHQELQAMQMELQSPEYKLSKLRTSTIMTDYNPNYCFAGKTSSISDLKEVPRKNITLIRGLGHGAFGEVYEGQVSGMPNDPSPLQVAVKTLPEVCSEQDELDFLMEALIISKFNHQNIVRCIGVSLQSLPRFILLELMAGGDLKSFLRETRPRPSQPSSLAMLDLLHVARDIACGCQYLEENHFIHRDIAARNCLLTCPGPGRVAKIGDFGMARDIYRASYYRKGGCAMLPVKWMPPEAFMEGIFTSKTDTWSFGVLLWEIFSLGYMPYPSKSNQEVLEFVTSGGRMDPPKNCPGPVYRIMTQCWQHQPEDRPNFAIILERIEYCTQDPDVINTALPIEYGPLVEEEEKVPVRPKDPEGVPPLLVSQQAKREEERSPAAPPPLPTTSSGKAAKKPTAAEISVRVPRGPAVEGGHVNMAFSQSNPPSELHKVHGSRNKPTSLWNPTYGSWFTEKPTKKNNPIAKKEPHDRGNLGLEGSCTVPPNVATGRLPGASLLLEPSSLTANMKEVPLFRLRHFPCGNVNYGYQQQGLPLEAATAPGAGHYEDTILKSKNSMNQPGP

- IC50 [1, 3]: < 100 nM
- IC50 [2, 4]: > 10000 nM
Structure (SMILES): COc1cc2c(cc1Nc1ncc(Cl)c(Nc3ccc(N4CCOCC4)cc3OC)n1)CCN(CCNC(C)=O)CC2 [Example 257, N-(2-{7-[5-Chloro-4-(2-methoxy-4-morpholin-4-yl-phenylamino)-pyrimidin-2-ylamino]-8-methoxy-1,2,4,5-tetrahydro-benzo[d]azepin-3-yl}-ethyl)-acetamide]

- IC50 [1, 5]: < 100 nM
- IC50 [2, 6]: < 100 nM
Structure (SMILES): COCCN1CCc2ccc(Nc3ncc(Cl)c(Nc4c(F)cccc4OCC#N)n3)cc2CC1 [Example 931, (2-{5-Chloro-2-[3-(2-methoxy-ethyl)-2,3,4,5-tetrahydro-1H-3-benzazepin-7-ylamino]-pyrimidin-4-ylamino}-3-fluoro-phenoxy)-acetonitrile]

Structure (SMILES): C#CCN1CC2CCC(C1)c1cc(Nc3ncc(Cl)c(Nc4ccccc4S(=O)(=O)NC)n3)ccc12 (stereo not shown) [Example 287, 2-[5-Chloro-2-(10-prop-2-ynyl-10-aza-tricyclo[6.3.2.0*2,7*]trideca-2,4,6-trien-4-ylamino)-pyrimidin-4-ylamino]-N-methyl-benzenesulfonamide]
- IC50 [1, 3]: < 100 nM
- IC50 [2, 4]: 100 to 1000 nM

Structure (SMILES): CS(=O)(=O)N[C@@H]1CCCC[C@H]1Nc1nc(Nc2ccc3c(c2)C2CCC3CNC2)ncc1Cl (stereo partly drawn) [Example 293, N-{(1R,2R)-2-[2-(10-Aza-tricyclo[6.3.2.0*2,7*]trideca-2,4,6-trien-4-ylamino)-5-chloro-pyrimidin-4-ylamino]-cyclohexyl}-methanesulfonamide]
- IC50 [1, 3]: < 100 nM
- IC50 [2, 4]: 1000 to 10000 nM

- IC50 [1, 3]: < 100 nM
- IC50 [2, 4]: 1000 to 10000 nM
Structure (SMILES): CS(=O)(=O)Nc1ccccc1Nc1nc(Nc2ccc3c(c2)CNC(=O)NC3)ncc1Cl [Example 225, N-{2-[5-Chloro-2-(3-oxo-2,3,4,5-tetrahydro-1H-benzo[e][1,3]diazepin-7-ylamino)-pyrimidin-4-ylamino]-phenyl}-methanesulfonamide]

- IC50 [1, 5]: < 100 nM
- IC50 [2, 6]: > 10000 nM
Structure (SMILES): COCC(COC)N1CCc2cc(Nc3ncc(Cl)c(Nc4ccccc4S(=O)(=O)C(C)C)n3)c(OC)cc2CC1 [Example 817, 5-Chloro-N*2*-[8-methoxy-3-(2-methoxy-1-methoxymethyl-ethyl)-2,3,4,5-tetrahydro-1H-benzo[d]azepin-7-yl]-N*4*-[2-(propane-2-sulfonyl)-phenyl]-pyrimidine-2,4-diamine]

- IC50 [1, 7]: < 100 nM
- IC50 [2, 8]: > 10000 nM
Structure (SMILES): COCCN(C)S(=O)(=O)c1ccccc1Nc1nc(Nc2cc3c(cc2OC)CCN(CC(=O)N(C)C)CC3)ncc1Cl [Example 1184, 2-[7-(5-Chloro-4-{2-[(2-methoxy-ethyl)-methyl-sulfamoyl]-phenylamino}-pyrimidin-2-ylamino)-8-methoxy-1,2,4,5-tetrahydro-benzo[d]azepin-3-yl]-N,N-dimethyl-acetamide]

- IC50 [1, 9]: < 100 nM
- IC50 [2, 10]: 1000 to 10000 nM
Structure (SMILES): COc1cc2c(cc1Nc1ncc(Cl)c(Nc3ccccc3S(=O)(=O)N(C)C)n1)CCN(CCOC(=O)CN)CC2 [Example 1542, Amino-acetic acid 2-{7-[5-chloro-4-(2-dimethylsulfamoyl-phenylamino)-pyrimidin-2-ylamino]-8-methoxy-1,2,4,5-tetrahydro-benzo[d]azepin-3-yl}-ethyl ester]

- IC50 [1, 9]: 100 to 1000 nM
- IC50 [2, 10]: < 100 nM
Structure (SMILES): CCN1C(=O)C(NC(=O)CN(C)C)CCc2ccc(Nc3ncc(Cl)c(Nc4c(F)cccc4C(=O)NC)n3)cc21 (stereo not shown) [Example 1496, 2-{5-Chloro-2-[3-(2-dimethylamino-acetylamino)-1-ethyl-2-oxo-2,3,4,5-tetrahydro-1H-benzo[b]azepin-8-ylamino]-pyrimidin-4-ylamino}-3-fluoro-N-methyl-benzamide]

- IC50 [1, 9]: < 100 nM
- IC50 [2, 10]: 1000 to 10000 nM
Structure (SMILES): COc1cc(N2CCOCC2)ccc1Nc1nc(Nc2ccc3c(c2)N(CCN2CCCC2)CCCC3(C)C)ncc1Cl [Example 1610, 5-Chloro-N*2*-[5,5-dimethyl-1-(2-pyrrolidin-1-yl-ethyl)-2,3,4,5-tetrahydro-1H-benzo[b]azepin-8-yl]-N*4*-(2-methoxy-4-morpholin-4-yl-phenyl)-pyrimidine-2,4-diamine]

- IC50 [1, 5]: 100 to 1000 nM
- IC50 [2, 6]: > 10000 nM
Structure (SMILES): COc1cc(N2CCOCC2)ccc1Nc1nc(Nc2cccc3c2OCCCC3(C)C)ncc1Cl [Example 876, 5-Chloro-N*2*-(5,5-dimethyl-2,3,4,5-tetrahydro-benzo[b]oxepin-9-yl)-N*4*-(2-methoxy-4-morpholin-4-yl-phenyl)-pyrimidine-2,4-diamine]

- IC50 [1, 3]: < 100 nM
- IC50 [2, 4]: 100 to 1000 nM
Structure (SMILES): CCN1CCc2ccc(Nc3ncc(Cl)c(N[C@H]4CCCC[C@H]4C(=O)NC)n3)cc2CC1 (relative stereo) [Example 200, cis-2-[5-Chloro-2-(3-ethyl-2,3,4,5-tetrahydro-1H-benzo[d]azepin-7-ylamino)-pyrimidin-4-ylamino]-cyclohexanecarboxylic acid methylamide]

- IC50 [1, 5]: 100 to 1000 nM
- IC50 [2, 6]: > 10000 nM
Structure (SMILES): COc1c(Nc2ncc(Cl)c(Nc3ccccc3C(=O)OC(C)C)n2)ccc2c1CCCC(N1CCOCC1)C2 (stereo not shown) [Example 948, 2-[5-Chloro-2-(1-methoxy-6-morpholin-4-yl-6,7,8,9-tetrahydro-5H-benzocyclohepten-2-ylamino)-pyrimidin-4-ylamino]-benzoic acid isopropyl ester]

- IC50 [1, 7]: < 100 nM
- IC50 [2, 8]: > 10000 nM
Structure (SMILES): COc1cc2c(cc1Nc1ncc(Cl)c(Nc3ccccc3S(=O)(=O)N(C)C)n1)CCN(CCCN1CCOCC1)C(=O)C2 [Example 1183, 2-{5-Chloro-2-[8-methoxy-3-(3-morpholin-4-yl-propyl)-2-oxo-2,3,4,5-tetrahydro-1H-benzo[d]azepin-7-ylamino]-pyrimidin-4-ylamino}-N,N-dimethyl-benzenesulfonamide]

- IC50 [1, 9]: < 100 nM
- IC50 [2, 10]: 100 to 1000 nM
Structure (SMILES): CNC(=O)c1ccccc1Nc1nc(Nc2ccc3c(c2)N(CCOC)C(=O)CCC3(C)C)ncc1Cl [Example 1585, 2-{5-Chloro-2-[1-(2-methoxy-ethyl)-5,5-dimethyl-2-oxo-2,3,4,5-tetrahydro-1H-benzo[b]azepin-8-ylamino]-pyrimidin-4-ylamino}-N-methyl-benzamide]

- IC50 [1, 9]: < 100 nM
- IC50 [2, 10]: > 10000 nM
Structure (SMILES): COc1cc2c(cc1Nc1ncc(Cl)c(Nc3ccccc3S(=O)(=O)C(C)C)n1)CCN(CCN1CCOCC1)CC2 [Example 1534, 5-Chloro-N(2)-[8-methoxy-3-(2-morpholin-4-yl-ethyl)-2,3,4,5-tetrahydro-1H-3-benzazepin-7-yl]-N(4)-[2-(propane-2-sulfonyl)-phenyl]-pyrimidine-2,4-diamine]

- IC50 [1, 7]: < 100 nM
- IC50 [2, 8]: > 10000 nM
Structure (SMILES): COc1cc2c(cc1Nc1ncc(Cl)c(N[C@H]3[C@@H](C(N)=O)[C@@H]4C=C[C@H]3C4)n1)CCC(NCCO)CC2 (single isomer, unassigned) [Example 1097]

- IC50 [1, 9]: 1000 to 10000 nM
- IC50 [2, 10]: > 10000 nM
Structure (SMILES): COCCN1CCc2ccc(Nc3ncc(Cl)c(Nc4ccccc4OCCN4CCOCC4)n3)cc2CC1 [Example 1466, 5-Chloro-N*2*-[3-(2-methoxy-ethyl)-2,3,4,5-tetrahydro-1H-enzo[d]azepin-7-yl]-N*4*-[2-(2-morpholin-4-yl-ethoxy)-phenyl]-pyrimidine-2,4-diamine]

- IC50 [1, 5]: 100 to 1000 nM
- IC50 [2, 6]: > 10000 nM
Structure (SMILES): CC1(C)CCC(=O)Nc2ccc(Nc3ncc(Cl)c(Nc4ccccc4-c4ncccc4C(F)(F)F)n3)cc21 [Example 991, 7-{5-Chloro-4-[2-(3-trifluoromethyl-pyridin-2-yl)-phenylamino]-pyrimidin-2-ylamino}-5,5-dimethyl-1,3,4,5-tetrahydro-benzo[b]azepin-2-one]

- IC50 [1, 9]: < 100 nM
- IC50 [2, 10]: > 10000 nM
Structure (SMILES): COc1cc2c(cc1Nc1ncc(Cl)c(N[C@H]3[C@@H](C(N)=O)[C@@H]4C=C[C@H]3C4)n1)CCN(C[C@@H](C)O)CC2 [Example 1559, (1S,2S,3R,4R)-3-{5-Chloro-2-[3-((R)-2-hydroxy-propyl)-8-methoxy-2,3,4,5-tetrahydro-1H-3-benzazepin-7-ylamino]-pyrimidin-4-ylamino}-bicyclo[2.2.1]hept-5-ene-2-carboxylic acid amide]

- IC50 [1, 9]: 1000 to 10000 nM
- IC50 [2, 10]: 100 to 1000 nM
Structure (SMILES): CN1Cc2cc(Nc3ncc(Cl)c(Nc4ccccc4-c4nccn4C)n3)ccc2CCC1=O [Example 1802, 8-{5-Chloro-4-[2-(1-methyl-1H-imidazol-2-yl)-phenylamino]-pyrimidin-2-ylamino}-2-methyl-1,2,4,5-tetrahydro-benzo[c]azepin-3-one]

- IC50 [1, 7]: 100 to 1000 nM
- IC50 [2, 8]: < 100 nM
Structure (SMILES): C#CCNC(=O)c1cccc(F)c1Nc1nc(Nc2ccc3c(c2)N(CC)C(=O)CCC3(C)C)ncc1Cl [Example 1405, 2-[5-Chloro-2-(1-ethyl-5,5-dimethyl-2-oxo-2,3,4,5-tetrahydro-1H-benzo[b]azepin-8-ylamino)-pyrimidin-4-ylamino]-3-fluoro-N-prop-2-ynyl-benzamide]

- IC50 [1, 7]: < 100 nM
- IC50 [2, 8]: 1000 to 10000 nM
Structure (SMILES): COc1cc2c(cc1Nc1ncc(Cl)c(Nc3ccccc3S(C)(=O)=O)n1)CCN(CCS(C)(=O)=O)CC2 [Example 1148, 5-Chloro-N*2*-[3-(2-methanesulfonyl-ethyl)-8-methoxy-2,3,4,5-tetrahydro-1H-benzo[d]azepin-7-yl]-N*4*-(2-methanesulfonyl-phenyl)-pyrimidine-2,4-diamine]
